# Where two headings read alike, the source gives them in different places.
# Experiments:
# [1] = target: T1, human Slo3 (Homo sapiens, UniProt A8MYU2); experiment: Whole-cell patch-clamp of Slo3 currents in CHO cells co-expressing human Slo3 and LRRC52; type: cell-based
# T1 construct: expressed in transfected cells; host or cells: CHO cells, transient co-transfection with pcDNA3.1(+) vectors
# T1 sequence (A8MYU2 1-1149): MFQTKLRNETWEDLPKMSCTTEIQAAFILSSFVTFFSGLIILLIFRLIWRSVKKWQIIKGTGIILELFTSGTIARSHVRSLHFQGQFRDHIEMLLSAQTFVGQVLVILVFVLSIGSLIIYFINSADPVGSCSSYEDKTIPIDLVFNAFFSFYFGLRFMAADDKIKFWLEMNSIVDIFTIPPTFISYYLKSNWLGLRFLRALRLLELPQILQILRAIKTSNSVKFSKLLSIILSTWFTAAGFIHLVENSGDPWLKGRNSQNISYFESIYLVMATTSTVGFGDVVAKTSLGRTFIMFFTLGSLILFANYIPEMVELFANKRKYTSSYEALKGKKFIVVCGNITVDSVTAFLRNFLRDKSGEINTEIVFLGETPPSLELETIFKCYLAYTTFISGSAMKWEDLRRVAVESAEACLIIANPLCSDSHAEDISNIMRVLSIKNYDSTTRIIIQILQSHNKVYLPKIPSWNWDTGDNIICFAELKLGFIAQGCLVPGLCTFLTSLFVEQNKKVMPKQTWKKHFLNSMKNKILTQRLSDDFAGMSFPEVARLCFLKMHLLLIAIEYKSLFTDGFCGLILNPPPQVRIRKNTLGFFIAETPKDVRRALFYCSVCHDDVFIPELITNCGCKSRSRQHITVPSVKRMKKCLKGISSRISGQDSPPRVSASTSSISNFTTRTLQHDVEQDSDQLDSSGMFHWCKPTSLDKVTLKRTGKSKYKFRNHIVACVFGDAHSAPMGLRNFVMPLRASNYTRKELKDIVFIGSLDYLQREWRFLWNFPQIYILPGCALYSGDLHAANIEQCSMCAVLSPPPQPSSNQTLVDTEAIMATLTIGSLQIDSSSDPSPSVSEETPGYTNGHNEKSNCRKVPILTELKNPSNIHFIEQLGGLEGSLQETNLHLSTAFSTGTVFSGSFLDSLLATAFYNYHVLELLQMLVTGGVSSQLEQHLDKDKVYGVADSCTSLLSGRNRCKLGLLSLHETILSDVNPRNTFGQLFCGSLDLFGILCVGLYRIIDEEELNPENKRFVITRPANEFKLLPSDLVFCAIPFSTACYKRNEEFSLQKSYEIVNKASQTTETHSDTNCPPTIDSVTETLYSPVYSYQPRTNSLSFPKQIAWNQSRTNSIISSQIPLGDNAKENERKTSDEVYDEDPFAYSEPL
# T1 sequence (Q8N7C0 24-313 partner): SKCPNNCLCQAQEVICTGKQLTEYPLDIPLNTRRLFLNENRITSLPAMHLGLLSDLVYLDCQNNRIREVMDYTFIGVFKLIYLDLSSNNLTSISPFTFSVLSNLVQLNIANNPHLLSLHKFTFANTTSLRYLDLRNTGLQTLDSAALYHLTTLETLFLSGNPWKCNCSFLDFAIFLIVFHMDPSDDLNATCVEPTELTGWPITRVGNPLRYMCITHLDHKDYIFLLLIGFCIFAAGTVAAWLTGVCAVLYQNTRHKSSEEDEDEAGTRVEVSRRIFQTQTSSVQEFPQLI
# [2] = test system: CatSper; conditions: relative to progesterone; cited from earlier work
# [3] = dose-response, Hill fit, mean ± SD, read-out: IC50 for inhibition of Slo3
# [4] = 50 µM prostaglandin, n = 3, in range of current rundown
smiles,measurement,setting,value
C[C@]12CCC(=O)C=C1CC[C@@H]1[C@@H]2C(=O)C[C@@]2(C)[C@H]1CC[C@]2(O)C(=O)CO [cortisone],decrease of Slo3 current amplitude,"[1]; 50 μM steroid, +100 mV, n ≥ 3",≤ 18%
C[C@]12C[C@H](O)[C@H]3[C@@H](CCC4=CC(=O)CC[C@@]43C)[C@@H]1CC[C@@H]2C(=O)CO [corticosterone],decrease of Slo3 current amplitude,"[1]; 50 μM steroid, +100 mV, n ≥ 3",significantly decreased
same,IC50,[1]; [3],58 ± 11 µM
C[C@]12CC[C@@H]3c4ccc(O)cc4CC[C@H]3[C@@H]1CC[C@@H]2O [estradiol],IC50,[1],8.9 ± 4.4 µM
same,decrease of Slo3 current amplitude,"[1]; 50 μM steroid, +100 mV, n ≥ 3",significantly decreased
same,fold less potent than progesterone to activate CatSper,[2],around 100 fold
CCCCC/C=C\C/C=C\C/C=C\C/C=C\CCCC(=O)O [arachidonic acid],effect on Slo3 currents,"[1]; 3 µM arachidonic acid, n = 7",did not affect
"CCCCC[C@H](O)/C=C/[C@H]1[C@H](O)CC(=O)[C@@H]1CCCCCCC(=O)O [PGE1, prostagladin E1]",decrease of Slo3 current amplitude,[1]; [4],18 ± 7%
"CCCCC[C@H](O)/C=C/[C@H]1[C@H](O)CC(=O)[C@@H]1C/C=C\CCCC(=O)O [PGE2, prostaglandin E2]",decrease of Slo3 current amplitude,[1]; [4],7 ± 7%
C[C@]12CC[C@H]3[C@@H](CC=C4C[C@@H](O)CC[C@@]43C)[C@@H]1CC[C@@H]2O [androstenediol],decrease of Slo3 current amplitude,"[1]; 50 μM steroid, +100 mV, n ≥ 3",≤ 18%
CC(=O)C1(O)CCC2C3CCC4=CC(=O)CCC4(C)C3CCC21C (stereo not drawn) [17α-hydroxyprogesterone],decrease of Slo3 current amplitude,"[1]; 50 μM steroid, +100 mV, n ≥ 3",significantly decreased
same,IC50,[1]; [3],27 ± 10 µM
[Zn+2] [Zn^2+],decrease of Slo3 current amplitude,"[1]; 1 mM Zn^2+, n = 4, in range of current rundown",14 ± 13%
CC(=O)[C@H]1CC[C@H]2[C@@H]3CCC4=CC(=O)CC[C@]4(C)[C@H]3CC[C@]12C [progesterone],decrease of Slo3 current amplitude,"[1]; 50 μM steroid, +100 mV, n ≥ 3",significantly decreased
same,IC50,[1]; [3],5.2 ± 2.9 µM
CC(=O)[C@@]1(O)CC[C@H]2[C@@H]3CC=C4C[C@@H](O)CC[C@]4(C)[C@H]3CC[C@@]21C [17α-hydroxypregnenolone],decrease of Slo3 current amplitude,"[1]; 50 μM steroid, +100 mV, n ≥ 3",≤ 18%
C[C@]12CC[C@@H]3c4ccc(O)cc4CC[C@H]3[C@@H]1CCC2=O [estrone],decrease of Slo3 current amplitude,"[1]; 50 μM steroid, +100 mV, n ≥ 3",≤ 18%
C[C@]12CC[C@H]3[C@@H](CCC4=CC(=O)CC[C@@]43C)[C@@H]1CC[C@@H]2O [testosterone],IC50,[1],17 ± 14 µM
same,decrease of Slo3 current amplitude,"[1]; 50 μM steroid, +100 mV, n ≥ 3",significantly decreased
"C[C@]12CC[C@H](O)CC1=CC[C@@H]1[C@@H]2CC[C@]2(C)C(=O)CC[C@@H]12 [DHEA, dehydroepiandrosterone]",IC50,[1],41 ± 4 µM
same,decrease of Slo3 current amplitude,"[1]; 50 μM steroid, +100 mV, n ≥ 3",significantly decreased
CC(=O)[C@H]1CC[C@H]2[C@@H]3CC=C4C[C@@H](O)CC[C@]4(C)[C@H]3CC[C@]12C [pregnenolone],decrease of Slo3 current amplitude,"[1]; 50 μM steroid, +100 mV, n ≥ 3",≤ 18%
C[C@]12CCC(=O)C=C1CC[C@@H]1[C@@H]2CC[C@]2(C)C(=O)CC[C@@H]12 [androstenedione],decrease of Slo3 current amplitude,"[1]; 50 μM steroid, +100 mV, n ≥ 3",≤ 18%

# Reference: paper PMC11413451 (Frontiers in Cell and Developmental Biology, 2024)
